Experimental findings from paper PMC9487510, “A Novel Oral GyrB/ParE Dual Binding Inhibitor Effective against Multidrug-Resistant Neisseria gonorrhoeae and Other High-Threat Pathogens” (Antimicrobial Agents and Chemotherapy, 2022) are described below.

One test relates to VRSA. Briefly: MIC, in vitro susceptibility testing (CLSI). The class given is cell-based, Staphylococcus aureus. The conditions noted are these: Staphylococcus aureus, VRSA.
In another test the test system is VISA. Put plainly: MIC, in vitro susceptibility testing (CLSI). Type of test: cell-based, Staphylococcus aureus. The conditions noted are these: Staphylococcus aureus, VISA.
Test [1] deals with Neisseria gonorrhoeae strain H041. Put plainly: Estradiol-treated mouse model of cervico-vaginal infection, strain H041. Type of test: in vivo, mouse (BALB/c). The conditions noted are these: 48 mg/kg, 5 QD, IP; P = 0.007.
For test [2], the system named is N. gonorrhoeae (ATCC 700825). Briefly: Intravaginal infection model, ovariectomized BALB/c mice, strain ATCC 700825. The conditions noted are these: 26 h, IP 48 mg/kg QD, relative to vehicle or baseline. The class given is in vivo, mouse (BALB/c).

`CO[C@H]1/C=C/O[C@@]2(C)Oc3c(C)c(O)c4c(O)c(c(/C=N/N5CCN(C)CC5)c(O)c4c3C2=O)NC(=O)/C(C)=C\C=C\[C@H](C)[C@H](O)[C@@H](C)[C@@H](O)[C@@H](C)[C@H](OC(C)=O)[C@@H]1C` [Rif, rifampicin]: the MIC against VRSA (strain 2 25 23), against VRSA (strain 2 25 24), in the test on VRSA (strain 2 25 25), against VRSA (strain 2 25 26), against VRSA (strain 2 25 27) and against VRSA (strain 2 25 28) was less than 0.078 µg/mL each time. For the same molecule, the MIC against VRSA (strain VRS2 (VRS-2)) is greater than 10 µg/mL; against VISA (strain 2 11 43), less than 0.078 µg/mL; in the test with VISA (strain 2 11 56) it was greater than 10 µg/mL; against VISA (strain 2 11 57) it was less than 0.078 µg/mL; against VISA (strain 2 11 61), less than 0.078 µg/mL; in the test on VISA (strain 2 11 71), greater than 10 µg/mL. Also, the MIC in the test with VISA (strain 2 11 78) is less than 0.078 µg/mL; against VISA (strain 2 11 86), greater than 10 µg/mL; against VISA (strain 2 13 52) it was greater than 10 µg/mL.

With `CNC(C)C1CCC(N)C(OC2C(N)CC(N)C(OC3OCC(C)(O)C(NC)C3O)C2O)O1` (centres unmarked) [GEN, gentamicin], the “average CFU per mL of vaginal swab suspension over time” value in test [1] is “significantly different than the vehicle control group”. Moreover, the “reduction in the bacterial counts” value in test [2] is recorded as “No significant reduction in the bacterial counts”.

In general, MIC refers to the lowest concentration that inhibits growth of the organism. Low readings indicate greater potency, high ones weaker potency.
